{"source": "the supplement of paper PMC10307832", "assay_in_all_cases": "relative viability (nuclei count vs DMSO), 5 days (fraction); higher = more cells survive", "key": {"RERF-LC-KJ": {"system": "RERF-LC-KJ", "in_short": "(§1)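 Lung cancer cell lines were seeded in 1536-well plates and dosed by pin tool the next day, with either a single drug or a fixed anchor-drug dose combined with five library-drug doses (not always all listed) spaced in √10 steps. Five days later, one step fixed the cells and stained their nuclei (final 0.05% Triton X-100, 1% formaldehyde, 1 ug/ml Hoechst), and nuclei were counted on 4× images. Relative viability is the nuclei count in treated wells divided by the count in vehicle wells, and each value is the median of duplicate plates.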"}, "LU99A": {"system": "LU99A", "in_short": "as §1"}, "SK-LU-1": {"system": "SK-LU-1", "in_short": "as §1"}, "EMC-BAC-2": {"system": "EMC-BAC-2", "in_short": "as §1"}, "SW 1573": {"system": "SW 1573", "in_short": "as §1"}, "NCI-H1666": {"system": "NCI-H1666", "in_short": "as §1"}, "NCI-H1975": {"system": "NCI-H1975", "in_short": "as §1"}, "EPLC-272H": {"system": "EPLC-272H", "in_short": "as §1"}, "NCI-H322M": {"system": "NCI-H322M", "in_short": "as §1"}, "NCI-H23": {"system": "NCI-H23", "in_short": "as §1"}, "LOU-NH91": {"system": "LOU-NH91", "in_short": "as §1"}, "HCC-827": {"system": "HCC-827", "in_short": "as §1"}, "NCI-H3122": {"system": "NCI-H3122", "in_short": "as §1"}, "LXF-289": {"system": "LXF-289", "in_short": "as §1"}, "NCI-H2085": {"system": "NCI-H2085", "in_short": "as §1"}, "ChaGo-K-1": {"system": "ChaGo-K-1", "in_short": "as §1"}, "HCC-78": {"system": "HCC-78", "in_short": "as §1"}, "LCLC-103H": {"system": "LCLC-103H", "in_short": "as §1"}, "NCI-H2126": {"system": "NCI-H2126", "in_short": "as §1"}, "LK-2": {"system": "LK-2", "in_short": "as §1"}, "SW 900": {"system": "SW 900", "in_short": "as §1"}, "NCI-H2405": {"system": "NCI-H2405", "in_short": "as §1"}}}
{"smiles": "O=C(O)c1ccc(-c2c[nH]c3ncc(-c4ccccc4)cc23)cc1C1CCCC1", "note": "+ O=C(c1cc(Cc2n[nH]c(=O)c3ccccc23)ccc1F)N1CCN(C(=O)C2CC2)CC1 [Olaparib] (partner 8 µM)", "values": [{"measurement": "relative viability", "setting": "RERF-LC-KJ; first compound 0.04 µM", "value": 0.9}, {"measurement": "relative viability", "setting": "RERF-LC-KJ; first compound 0.1265 µM", "value": 0.788}, {"measurement": "relative viability", "setting": "RERF-LC-KJ; first compound 0.4 µM", "value": 0.786}, {"measurement": "relative viability", "setting": "RERF-LC-KJ; first compound 1.265 µM", "value": 0.473}, {"measurement": "relative viability", "setting": "LU99A; first compound 0.04 µM", "value": 0.255}, {"measurement": "relative viability", "setting": "LU99A; first compound 0.1265 µM", "value": 0.302}, {"measurement": "relative viability", "setting": "LU99A; first compound 0.4 µM", "value": 0.255}, {"measurement": "relative viability", "setting": "LU99A; first compound 1.265 µM", "value": 0.25}, {"measurement": "relative viability", "setting": "SK-LU-1; first compound 0.04 µM", "value": 0.457}, {"measurement": "relative viability", "setting": "SK-LU-1; first compound 0.1265 µM", "value": 0.459}, {"measurement": "relative viability", "setting": "SK-LU-1; first compound 0.4 µM", "value": 0.512}, {"measurement": "relative viability", "setting": "SK-LU-1; first compound 1.265 µM", "value": 0.318}, {"measurement": "relative viability", "setting": "EMC-BAC-2; first compound 0.04 µM", "value": 0.453}, {"measurement": "relative viability", "setting": "EMC-BAC-2; first compound 0.1265 µM", "value": 0.506}, {"measurement": "relative viability", "setting": "EMC-BAC-2; first compound 0.4 µM", "value": 0.429}, {"measurement": "relative viability", "setting": "EMC-BAC-2; first compound 1.265 µM", "value": 0.368}, {"measurement": "relative viability", "setting": "SW 1573; first compound 0.04 µM", "value": 0.527}, {"measurement": "relative viability", "setting": "SW 1573; first compound 0.1265 µM", "value": 0.528}, {"measurement": "relative viability", "setting": "SW 1573; first compound 0.4 µM", "value": 0.427}, {"measurement": "relative viability", "setting": "SW 1573; first compound 1.265 µM", "value": 0.341}, {"measurement": "relative viability", "setting": "NCI-H1666; first compound 0.04 µM", "value": 0.781}, {"measurement": "relative viability", "setting": "NCI-H1666; first compound 0.1265 µM", "value": 0.742}, {"measurement": "relative viability", "setting": "NCI-H1666; first compound 0.4 µM", "value": 0.741}, {"measurement": "relative viability", "setting": "NCI-H1666; first compound 1.265 µM", "value": 0.678}, {"measurement": "relative viability", "setting": "NCI-H1975; first compound 0.04 µM", "value": 0.724}, {"measurement": "relative viability", "setting": "NCI-H1975; first compound 0.1265 µM", "value": 0.801}, {"measurement": "relative viability", "setting": "NCI-H1975; first compound 0.4 µM", "value": 0.842}, {"measurement": "relative viability", "setting": "NCI-H1975; first compound 1.265 µM", "value": 0.539}, {"measurement": "relative viability", "setting": "EPLC-272H; first compound 0.04 µM", "value": 0.924}, {"measurement": "relative viability", "setting": "EPLC-272H; first compound 0.1265 µM", "value": 1.05}, {"measurement": "relative viability", "setting": "EPLC-272H; first compound 0.4 µM", "value": 0.566}, {"measurement": "relative viability", "setting": "EPLC-272H; first compound 1.265 µM", "value": 0.257}, {"measurement": "relative viability", "setting": "NCI-H322M; first compound 0.04 µM", "value": 0.856}, {"measurement": "relative viability", "setting": "NCI-H322M; first compound 0.1265 µM", "value": 0.718}, {"measurement": "relative viability", "setting": "NCI-H322M; first compound 0.4 µM", "value": 0.661}, {"measurement": "relative viability", "setting": "NCI-H322M; first compound 1.265 µM", "value": 0.554}, {"measurement": "relative viability", "setting": "NCI-H23; first compound 0.04 µM", "value": 0.34}, {"measurement": "relative viability", "setting": "NCI-H23; first compound 0.1265 µM", "value": 0.33}, {"measurement": "relative viability", "setting": "NCI-H23; first compound 0.4 µM", "value": 0.289}, {"measurement": "relative viability", "setting": "NCI-H23; first compound 1.265 µM", "value": 0.271}, {"measurement": "relative viability", "setting": "LOU-NH91; first compound 0.04 µM", "value": 0.893}, {"measurement": "relative viability", "setting": "LOU-NH91; first compound 0.1265 µM", "value": 0.979}, {"measurement": "relative viability", "setting": "LOU-NH91; first compound 0.4 µM", "value": 0.908}, {"measurement": "relative viability", "setting": "LOU-NH91; first compound 1.265 µM", "value": 0.754}, {"measurement": "relative viability", "setting": "HCC-827; first compound 0.04 µM", "value": 0.559}, {"measurement": "relative viability", "setting": "HCC-827; first compound 0.1265 µM", "value": 0.714}, {"measurement": "relative viability", "setting": "HCC-827; first compound 0.4 µM", "value": 0.569}, {"measurement": "relative viability", "setting": "HCC-827; first compound 1.265 µM", "value": 0.398}, {"measurement": "relative viability", "setting": "NCI-H3122; first compound 0.04 µM", "value": 0.654}, {"measurement": "relative viability", "setting": "NCI-H3122; first compound 0.1265 µM", "value": 0.666}, {"measurement": "relative viability", "setting": "NCI-H3122; first compound 0.4 µM", "value": 0.602}, {"measurement": "relative viability", "setting": "NCI-H3122; first compound 1.265 µM", "value": 0.617}, {"measurement": "relative viability", "setting": "LXF-289; first compound 0.04 µM", "value": 1.07}, {"measurement": "relative viability", "setting": "LXF-289; first compound 0.1265 µM", "value": 0.935}, {"measurement": "relative viability", "setting": "LXF-289; first compound 0.4 µM", "value": 0.709}, {"measurement": "relative viability", "setting": "LXF-289; first compound 1.265 µM", "value": 0.507}, {"measurement": "relative viability", "setting": "NCI-H2085; first compound 0.04 µM", "value": 0.74}, {"measurement": "relative viability", "setting": "NCI-H2085; first compound 0.1265 µM", "value": 0.793}, {"measurement": "relative viability", "setting": "NCI-H2085; first compound 0.4 µM", "value": 0.746}, {"measurement": "relative viability", "setting": "NCI-H2085; first compound 1.265 µM", "value": 0.474}, {"measurement": "relative viability", "setting": "ChaGo-K-1; first compound 0.04 µM", "value": 0.418}, {"measurement": "relative viability", "setting": "ChaGo-K-1; first compound 0.1265 µM", "value": 0.429}, {"measurement": "relative viability", "setting": "ChaGo-K-1; first compound 0.4 µM", "value": 0.401}, {"measurement": "relative viability", "setting": "ChaGo-K-1; first compound 1.265 µM", "value": 0.314}, {"measurement": "relative viability", "setting": "HCC-78; first compound 0.1265 µM", "value": 0.814}, {"measurement": "relative viability", "setting": "HCC-78; first compound 0.4 µM", "value": 0.784}, {"measurement": "relative viability", "setting": "HCC-78; first compound 1.265 µM", "value": 0.71}, {"measurement": "relative viability", "setting": "LCLC-103H; first compound 0.04 µM", "value": 0.728}, {"measurement": "relative viability", "setting": "LCLC-103H; first compound 0.1265 µM", "value": 0.771}, {"measurement": "relative viability", "setting": "LCLC-103H; first compound 0.4 µM", "value": 0.758}, {"measurement": "relative viability", "setting": "LCLC-103H; first compound 1.265 µM", "value": 0.729}, {"measurement": "relative viability", "setting": "NCI-H2126; first compound 0.04 µM", "value": 0.884}, {"measurement": "relative viability", "setting": "NCI-H2126; first compound 0.1265 µM", "value": 0.861}, {"measurement": "relative viability", "setting": "NCI-H2126; first compound 0.4 µM", "value": 0.853}, {"measurement": "relative viability", "setting": "NCI-H2126; first compound 1.265 µM", "value": 0.64}, {"measurement": "relative viability", "setting": "LK-2; first compound 0.04 µM", "value": 0.734}, {"measurement": "relative viability", "setting": "LK-2; first compound 0.1265 µM", "value": 0.641}, {"measurement": "relative viability", "setting": "LK-2; first compound 0.4 µM", "value": 0.636}, {"measurement": "relative viability", "setting": "LK-2; first compound 1.265 µM", "value": 0.648}, {"measurement": "relative viability", "setting": "SW 900; first compound 0.04 µM", "value": 0.768}, {"measurement": "relative viability", "setting": "SW 900; first compound 0.1265 µM", "value": 1.04}, {"measurement": "relative viability", "setting": "SW 900; first compound 0.4 µM", "value": 0.702}, {"measurement": "relative viability", "setting": "SW 900; first compound 1.265 µM", "value": 0.475}, {"measurement": "relative viability", "setting": "NCI-H2405; first compound 0.04 µM", "value": 0.823}, {"measurement": "relative viability", "setting": "NCI-H2405; first compound 0.1265 µM", "value": 0.951}, {"measurement": "relative viability", "setting": "NCI-H2405; first compound 0.4 µM", "value": 0.778}, {"measurement": "relative viability", "setting": "NCI-H2405; first compound 1.265 µM", "value": 0.584}]}
